The assay concerns the target T1, Human macrophage mannose receptor 1 (MRC1) (Homo sapiens, UniProt P22897).
T1 sequence (P22897 19-1456): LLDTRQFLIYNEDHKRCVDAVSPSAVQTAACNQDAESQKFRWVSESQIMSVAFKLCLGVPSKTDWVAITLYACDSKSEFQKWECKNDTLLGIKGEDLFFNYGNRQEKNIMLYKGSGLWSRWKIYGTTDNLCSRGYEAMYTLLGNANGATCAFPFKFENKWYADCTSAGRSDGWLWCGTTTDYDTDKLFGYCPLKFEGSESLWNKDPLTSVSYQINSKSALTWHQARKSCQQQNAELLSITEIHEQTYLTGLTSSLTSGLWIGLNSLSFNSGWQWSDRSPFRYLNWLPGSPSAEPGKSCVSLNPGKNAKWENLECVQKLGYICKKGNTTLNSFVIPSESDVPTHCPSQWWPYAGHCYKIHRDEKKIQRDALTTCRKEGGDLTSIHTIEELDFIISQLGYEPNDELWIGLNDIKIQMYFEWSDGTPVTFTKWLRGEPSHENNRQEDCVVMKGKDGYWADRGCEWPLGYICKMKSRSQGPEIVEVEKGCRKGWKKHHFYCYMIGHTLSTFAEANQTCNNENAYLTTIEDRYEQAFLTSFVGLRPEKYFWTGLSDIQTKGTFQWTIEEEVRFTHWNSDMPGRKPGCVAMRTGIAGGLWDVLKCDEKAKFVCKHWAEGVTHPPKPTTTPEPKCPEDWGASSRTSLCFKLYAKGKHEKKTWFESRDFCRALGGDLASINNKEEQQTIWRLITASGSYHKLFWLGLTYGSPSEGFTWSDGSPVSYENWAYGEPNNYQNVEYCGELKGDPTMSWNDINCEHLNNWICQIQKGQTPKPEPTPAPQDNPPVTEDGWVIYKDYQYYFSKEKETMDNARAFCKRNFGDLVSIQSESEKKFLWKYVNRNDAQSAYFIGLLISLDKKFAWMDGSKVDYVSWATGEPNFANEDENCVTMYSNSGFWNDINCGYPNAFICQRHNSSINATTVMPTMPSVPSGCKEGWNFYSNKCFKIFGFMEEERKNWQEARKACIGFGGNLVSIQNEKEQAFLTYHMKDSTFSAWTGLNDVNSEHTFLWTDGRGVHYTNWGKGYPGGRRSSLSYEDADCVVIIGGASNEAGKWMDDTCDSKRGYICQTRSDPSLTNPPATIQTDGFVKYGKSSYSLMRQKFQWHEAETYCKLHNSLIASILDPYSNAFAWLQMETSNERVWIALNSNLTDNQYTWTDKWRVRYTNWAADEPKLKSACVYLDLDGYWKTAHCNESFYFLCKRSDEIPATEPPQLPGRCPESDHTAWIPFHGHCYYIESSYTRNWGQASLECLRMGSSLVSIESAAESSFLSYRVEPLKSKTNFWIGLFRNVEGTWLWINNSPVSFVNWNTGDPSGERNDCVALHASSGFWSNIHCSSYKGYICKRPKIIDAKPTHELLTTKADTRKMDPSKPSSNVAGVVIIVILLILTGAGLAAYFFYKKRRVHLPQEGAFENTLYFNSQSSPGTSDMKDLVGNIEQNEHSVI
Briefly: MRC1 competition binding assay (Eu-mannosylated-BSA), Method F: 96-well, manual liquid dispense. To be noted: read-out: MRC1 Binding IP (inflection point, corresponds to IC50). How it is done: The competition binding assay for MRC1 utilized a ligand, mannosylated-BSA labeled with the DELFIA Eu-N1-ITC reagent, as reported in the literature. […] The antibody was incubated in the plate for 1 hr at room temperature with shaking. The plate was washed with wash buffer 3-5 times followed by addition of MRC1 (2 ng/μl final concentration) in 25 μl PBS containing 1% stabilizer BSA. The plate was incubated at room temperature with gentle shaking for 1 hr. The plate was washed three times with wash buffer. […]
Their in vitro biological activities towards insulin receptor (IR) were measured by either ligand competition assays or functional phosphorylation assays, as described above, labeled as following: Method A: IR phosphorylation assay based on 96-well with manual liquid dispense; Method B: IR phosphorylation assay based on 96-well with automated liquid dispense; Method C: IR phosphorylation assay based on 384-well with automated liquid dispense; Method D: IR binding assay method D; Method E: IR binding assay method E; Method F: MRC1 assay was performed in a 96-well plate with a manual liquid dispense; Method G: MRC1 assay was performed in a 96-well plate with an automated liquid dispense; Method H: MRC1 assay was performed in a 384-well plate with an automated dispense.

The source of these data is patent publication US9884125B2, “Glucose-responsive insulin conjugates” (Merck Sharp & Dohme Corp., priority 2013, dated 2018).

A word on the IC50: it is the concentration at which inhibition is half-maximal. As to `CC[C@H](C)[C@H](NC(=O)CN)C(=O)N[C@H](C(=O)N[C@@H](CCC(=O)O)C(=O)N[C@@H](CCC(N)=O)C(=O)N[C@H]1CSSC[C@@H]2NC(=O)[C@H]([C@@H](C)CC)NC(=O)[C@H](CO)NC(=O)[C@H]([C@@H](C)O)NC(=O)[C@H](CSSC[C@H](NC(=O)[C@H](CC(C)C)NC(=O)[C@H](Cc3c[nH]cn3)NC(=O)[C@H](CCC(N)=O)NC(=O)[C@H](CC(N)=O)NC(=O)[C@@H](NC(=O)[C@@H](N)Cc3ccccc3)C(C)C)C(=O)NCC(=O)N[C@@H](CO)C(=O)N[C@@H](Cc3c[nH]cn3)C(=O)N[C@@H](CC(C)C)C(=O)N[C@@H](C(C)C)C(=O)N[C@@H](CCC(=O)O)C(=O)N[C@@H](C)C(=O)N[C@@H](CC(C)C)C(=O)N[C@@H](Cc3ccc(O)cc3)C(=O)N[C@@H](CC(C)C)C(=O)N[C@@H](C(C)C)C(=O)N[C@H](C(=O)NCC(=O)N[C@@H](CCC(=O)O)C(=O)N[C@@H](CCCNC(=N)N)C(=O)NCC(=O)N[C@@H](Cc3ccccc3)C(=O)N[C@@H](Cc3ccccc3)C(=O)N[C@@H](Cc3ccc(O)cc3)C(=O)N[C@H](C(=O)N3CCC[C@H]3C(=O)N[C@@H](CCCCNC(=O)CCCCC(=O)N(CC(=O)NCCO[C@@H]3O[C@@H](C)[C@@H](O)[C@@H](O)[C@@H]3O)CC(=O)NCCO[C@@H]3O[C@@H](C)[C@@H](O)[C@@H](O)[C@@H]3O)C(=O)N[C@H](C(=O)O)[C@@H](C)O)[C@@H](C)O)CSSC[C@@H](C(=O)N[C@@H](CC(N)=O)C(=O)O)NC(=O)[C@H](Cc3ccc(O)cc3)NC(=O)[C@H](CC(N)=O)NC(=O)[C@H](CCC(=O)O)NC(=O)[C@H](CC(C)C)NC(=O)[C@H](CCC(N)=O)NC(=O)[C@H](Cc3ccc(O)cc3)NC(=O)[C@H](CC(C)C)NC(=O)[C@H](CO)NC2=O)NC1=O)C(C)C` [IOC-12], the half-inhibitory concentration (IC50) was 92.5 nM.
As for `CC[C@H](C)[C@H](NC(=O)CNC(=O)CCCCC(=O)N(CC(=O)NCCO[C@@H]1O[C@@H](C)[C@@H](O)[C@@H](O)[C@@H]1O)CC(=O)NCCO[C@@H]1O[C@@H](C)[C@@H](O)[C@@H](O)[C@@H]1O)C(=O)N[C@H](C(=O)N[C@@H](CCC(=O)O)C(=O)N[C@@H](CCC(N)=O)C(=O)N[C@H]1CSSC[C@@H]2NC(=O)[C@H]([C@@H](C)CC)NC(=O)[C@H](CO)NC(=O)[C@H]([C@@H](C)O)NC(=O)[C@H](CSSC[C@H](NC(=O)[C@H](CC(C)C)NC(=O)[C@H](Cc3c[nH]cn3)NC(=O)[C@H](CCC(N)=O)NC(=O)[C@H](CC(N)=O)NC(=O)[C@@H](NC(=O)[C@@H](N)Cc3ccccc3)C(C)C)C(=O)NCC(=O)N[C@@H](CO)C(=O)N[C@@H](Cc3c[nH]cn3)C(=O)N[C@@H](CC(C)C)C(=O)N[C@@H](C(C)C)C(=O)N[C@@H](CCC(=O)O)C(=O)N[C@@H](C)C(=O)N[C@@H](CC(C)C)C(=O)N[C@@H](Cc3ccc(O)cc3)C(=O)N[C@@H](CC(C)C)C(=O)N[C@@H](C(C)C)C(=O)N[C@H](C(=O)NCC(=O)N[C@@H](CCC(=O)O)C(=O)N[C@@H](CCCNC(=N)N)C(=O)NCC(=O)N[C@@H](Cc3ccccc3)C(=O)N[C@@H](Cc3ccccc3)C(=O)N[C@@H](Cc3ccc(O)cc3)C(=O)N[C@H](C(=O)N3CCC[C@H]3C(=O)N[C@@H](CCCCN)C(=O)N[C@H](C(=O)O)[C@@H](C)O)[C@@H](C)O)CSSC[C@@H](C(=O)N[C@@H](CC(N)=O)C(=O)O)NC(=O)[C@H](Cc3ccc(O)cc3)NC(=O)[C@H](CC(N)=O)NC(=O)[C@H](CCC(=O)O)NC(=O)[C@H](CC(C)C)NC(=O)[C@H](CCC(N)=O)NC(=O)[C@H](Cc3ccc(O)cc3)NC(=O)[C@H](CC(C)C)NC(=O)[C@H](CO)NC2=O)NC1=O)C(C)C` [IOC-13], the IC50 was determined as 107 nM.
